Laboratory results as given in patent US7344706B2, “UV absorber compositions comprising a hydroxyphenyltriazine compound” (Ciba Specialty Chemicals Corp., priority 2002, dated 2008).

How the values were obtained:
[1] = Solubility in cosmetic oils; format: physicochemical; conditions: percentages refer to weight
[2] = Spectral properties (UV absorption); format: physicochemical
Source text: Spectral Properties: [table]

solubility in di-C12-C13alkylmalates ([1]; solvent di-C12-C13alkylmalates): > 25% | solubility in glyceryl-trioctanoate ([1]; solvent glyceryl-trioctanoate): > 30% | ε [2]: 50443 liters/(mol/cm) | λmax [2]: 322 nm | E [1%, 1 cm] (in dioxane) ([2]; in dioxane): 681.62
Compound: CCCCC(CC)COc1ccc(-c2nc(-c3ccc(OC)cc3)nc(-c3ccc(OCC(CC)CCCC)cc3OCC(CC)CCCC)n2)c(O)c1 (centres unmarked) [Example 1, 2-((2,4-(2-ethyl-hexyloxy)-phenyl))-4-((2-hydroxy-4-(2-ethyl-hexyloxy)-phenyl))-6-(4-methoxyphenyl)-(1,3,5)-triazine]
